The source made the active and inactive calls.
Experiments:
[1] = target: T1, Apoptotic protease-activating factor 1 (Homo sapiens, UniProt O14727); type: functional
T1 sequence (O14727 whole entry): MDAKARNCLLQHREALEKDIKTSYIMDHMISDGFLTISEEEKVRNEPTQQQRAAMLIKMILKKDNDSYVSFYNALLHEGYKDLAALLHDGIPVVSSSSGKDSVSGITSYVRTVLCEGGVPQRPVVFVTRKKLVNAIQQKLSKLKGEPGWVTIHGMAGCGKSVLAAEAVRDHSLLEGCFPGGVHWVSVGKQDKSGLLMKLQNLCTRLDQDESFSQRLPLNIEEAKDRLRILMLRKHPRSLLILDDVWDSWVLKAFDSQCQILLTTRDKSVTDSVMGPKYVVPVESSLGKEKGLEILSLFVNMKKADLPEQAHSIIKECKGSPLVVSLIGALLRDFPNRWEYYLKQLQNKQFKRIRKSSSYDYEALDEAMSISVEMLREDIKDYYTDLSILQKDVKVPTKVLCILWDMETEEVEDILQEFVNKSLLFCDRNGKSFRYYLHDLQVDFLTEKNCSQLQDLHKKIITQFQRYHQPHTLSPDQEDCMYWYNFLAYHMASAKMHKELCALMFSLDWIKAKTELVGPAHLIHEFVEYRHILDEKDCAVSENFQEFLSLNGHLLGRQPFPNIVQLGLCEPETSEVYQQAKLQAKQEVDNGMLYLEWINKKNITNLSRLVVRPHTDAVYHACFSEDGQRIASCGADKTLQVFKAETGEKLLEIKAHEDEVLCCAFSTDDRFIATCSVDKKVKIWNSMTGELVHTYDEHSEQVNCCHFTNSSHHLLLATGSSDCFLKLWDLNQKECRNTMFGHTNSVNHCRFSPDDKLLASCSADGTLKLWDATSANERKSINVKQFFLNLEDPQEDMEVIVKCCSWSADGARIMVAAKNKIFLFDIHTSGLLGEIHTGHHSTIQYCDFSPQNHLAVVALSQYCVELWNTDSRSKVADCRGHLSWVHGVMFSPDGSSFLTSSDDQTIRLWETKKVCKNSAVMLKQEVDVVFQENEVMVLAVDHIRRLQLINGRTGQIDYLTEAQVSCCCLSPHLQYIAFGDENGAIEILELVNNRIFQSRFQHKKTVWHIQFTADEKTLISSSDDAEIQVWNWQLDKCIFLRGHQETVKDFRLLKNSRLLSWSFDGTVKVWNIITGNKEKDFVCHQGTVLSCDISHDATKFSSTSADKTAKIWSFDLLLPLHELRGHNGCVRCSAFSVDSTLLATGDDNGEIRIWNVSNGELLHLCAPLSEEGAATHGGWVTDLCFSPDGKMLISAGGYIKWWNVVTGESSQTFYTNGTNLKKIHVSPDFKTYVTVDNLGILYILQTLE

HEK293 [2] = test: EBV LMP1 TES2 canonical NF-kB signalling blockers – cell-based, HEK293, luciferase, cherry-pick, dose response (AID 588343); type: functional; conditions: Homo sapiens
[3] = bead-based luminescence quenchers, dual-tagged ARNT – biochemical, AlphaScreen, cherry-pick, artefact control for ARNT-TACC3 interaction inhibitor project, dose response (AID 651705); type: functional;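 further: AlphaScreen bead proximity signal that flags compounds interfering with the detection technology; potency reflects signal decrease which marks the compound as an assay artifact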
Caspase-3 = target: T2, Caspase-3 (Homo sapiens, UniProt P42574); type: functional;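 further: Dose-response selectivity test against caspase-3 for candidate inhibitors of sentrin-specific proteases (SENPs)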
T2 sequence (P42574 whole entry): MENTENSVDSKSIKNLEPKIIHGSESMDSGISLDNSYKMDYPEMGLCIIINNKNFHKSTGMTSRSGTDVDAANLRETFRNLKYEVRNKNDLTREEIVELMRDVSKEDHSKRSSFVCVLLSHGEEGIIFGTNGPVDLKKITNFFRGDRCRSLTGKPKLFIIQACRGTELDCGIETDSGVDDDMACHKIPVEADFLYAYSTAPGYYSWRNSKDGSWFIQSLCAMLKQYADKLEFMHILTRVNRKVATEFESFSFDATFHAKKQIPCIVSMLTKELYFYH

[4] = target: T3, Sentrin-specific protease 7 (Homo sapiens, UniProt Q9BQF6); type: functional;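 further: Luminescence-based dose-response confirmation of ultra-high-throughput screening hits, measuring inhibition of SENP7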
T3 sequence (Q9BQF6 whole entry): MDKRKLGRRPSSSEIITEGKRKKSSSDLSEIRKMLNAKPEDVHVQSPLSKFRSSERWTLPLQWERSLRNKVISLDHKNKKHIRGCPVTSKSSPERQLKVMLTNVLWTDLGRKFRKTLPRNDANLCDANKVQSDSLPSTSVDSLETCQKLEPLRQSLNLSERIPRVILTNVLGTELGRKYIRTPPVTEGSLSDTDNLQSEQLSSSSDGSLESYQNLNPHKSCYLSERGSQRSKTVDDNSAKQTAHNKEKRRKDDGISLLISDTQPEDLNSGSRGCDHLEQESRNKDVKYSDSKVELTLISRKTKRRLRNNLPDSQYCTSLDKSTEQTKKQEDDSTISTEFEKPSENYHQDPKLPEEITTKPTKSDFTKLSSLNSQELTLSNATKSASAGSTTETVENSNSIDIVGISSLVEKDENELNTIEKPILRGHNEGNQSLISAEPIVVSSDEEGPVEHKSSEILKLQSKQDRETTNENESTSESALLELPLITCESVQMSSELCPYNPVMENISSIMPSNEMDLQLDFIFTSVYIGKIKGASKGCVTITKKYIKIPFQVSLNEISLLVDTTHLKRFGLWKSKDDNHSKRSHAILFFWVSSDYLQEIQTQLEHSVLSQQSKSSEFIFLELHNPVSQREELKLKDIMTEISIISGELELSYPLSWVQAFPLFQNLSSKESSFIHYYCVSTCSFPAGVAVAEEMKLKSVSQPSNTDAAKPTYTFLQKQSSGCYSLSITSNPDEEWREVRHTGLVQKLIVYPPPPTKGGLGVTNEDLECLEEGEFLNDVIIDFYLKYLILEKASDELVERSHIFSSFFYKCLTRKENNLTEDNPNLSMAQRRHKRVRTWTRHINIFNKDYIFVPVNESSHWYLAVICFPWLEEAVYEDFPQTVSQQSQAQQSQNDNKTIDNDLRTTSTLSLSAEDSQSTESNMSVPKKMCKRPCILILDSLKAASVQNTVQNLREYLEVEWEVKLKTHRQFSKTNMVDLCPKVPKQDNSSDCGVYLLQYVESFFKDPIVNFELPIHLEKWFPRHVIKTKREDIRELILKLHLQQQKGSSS

[5] = target: T4, Sentrin-specific protease 6 (Homo sapiens, UniProt Q9GZR1); type: functional;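 further: Luminescence-based dose-response confirmatory assay of SENP6 inhibition, following up an ultra-high-throughput screen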
T4 sequence (Q9GZR1 whole entry): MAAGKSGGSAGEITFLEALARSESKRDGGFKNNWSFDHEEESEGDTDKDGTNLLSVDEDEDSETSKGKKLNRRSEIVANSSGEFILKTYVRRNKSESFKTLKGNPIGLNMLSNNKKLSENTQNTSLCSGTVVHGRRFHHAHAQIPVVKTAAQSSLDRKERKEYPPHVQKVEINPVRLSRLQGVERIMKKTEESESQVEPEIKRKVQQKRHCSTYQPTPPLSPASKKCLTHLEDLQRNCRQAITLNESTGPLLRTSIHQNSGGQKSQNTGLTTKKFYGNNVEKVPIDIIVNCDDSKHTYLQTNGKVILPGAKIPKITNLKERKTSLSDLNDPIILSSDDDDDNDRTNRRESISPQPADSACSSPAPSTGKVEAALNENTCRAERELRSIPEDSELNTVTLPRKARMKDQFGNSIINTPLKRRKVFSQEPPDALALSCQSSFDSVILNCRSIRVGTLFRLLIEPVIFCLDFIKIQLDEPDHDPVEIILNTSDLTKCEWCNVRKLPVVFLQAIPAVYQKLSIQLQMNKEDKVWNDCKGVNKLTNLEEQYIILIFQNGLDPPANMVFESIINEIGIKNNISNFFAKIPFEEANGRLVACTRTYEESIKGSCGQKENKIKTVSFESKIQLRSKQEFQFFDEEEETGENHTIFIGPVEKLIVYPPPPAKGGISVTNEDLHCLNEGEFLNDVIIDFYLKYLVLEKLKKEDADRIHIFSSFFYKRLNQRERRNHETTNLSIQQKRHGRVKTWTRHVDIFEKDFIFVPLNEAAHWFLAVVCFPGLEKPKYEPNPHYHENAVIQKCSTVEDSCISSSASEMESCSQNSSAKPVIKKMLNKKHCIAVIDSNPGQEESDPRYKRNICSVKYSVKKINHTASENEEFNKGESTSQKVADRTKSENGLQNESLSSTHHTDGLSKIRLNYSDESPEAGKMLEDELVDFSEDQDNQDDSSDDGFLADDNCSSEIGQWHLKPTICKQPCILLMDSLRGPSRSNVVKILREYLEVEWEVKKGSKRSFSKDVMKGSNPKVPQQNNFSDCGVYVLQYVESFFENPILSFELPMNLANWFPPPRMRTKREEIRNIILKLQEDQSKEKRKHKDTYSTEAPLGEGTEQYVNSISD

[6] = target: T5, Sentrin-specific protease 8 (Homo sapiens, UniProt Q96LD8); type: functional;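 further: luminescence read-out of SENP8 inhibition, dose-response confirmation following an ultra-high-throughput screen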
T5 sequence (Q96LD8 whole entry): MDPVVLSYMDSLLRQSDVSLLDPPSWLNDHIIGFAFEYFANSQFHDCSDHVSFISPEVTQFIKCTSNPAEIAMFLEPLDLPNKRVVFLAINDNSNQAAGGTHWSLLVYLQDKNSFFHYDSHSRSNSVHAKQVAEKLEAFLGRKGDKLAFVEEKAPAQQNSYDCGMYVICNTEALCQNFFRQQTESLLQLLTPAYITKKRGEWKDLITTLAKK

[7] = HEK-293T viability loss after treatment – luminescence, T-cell screen hits, cytotoxicity control for TCR NF-kB inhibitor project, dose response (AID 489026); type: functional, cell-based;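 further: cells exposed to compound about 14 hours before the viability readout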
[8] = target: T6, Carboxy-terminal domain RNA polymerase II polypeptide A small phosphatase 1 (Homo sapiens, UniProt Q9GZU7); test: CTDSP1 inhibitors, concentration-response, biochemical, absorbance readout, ultra-high-throughput screen actives (AID 540297); type: functional
T6 sequence (Q9GZU7 whole entry): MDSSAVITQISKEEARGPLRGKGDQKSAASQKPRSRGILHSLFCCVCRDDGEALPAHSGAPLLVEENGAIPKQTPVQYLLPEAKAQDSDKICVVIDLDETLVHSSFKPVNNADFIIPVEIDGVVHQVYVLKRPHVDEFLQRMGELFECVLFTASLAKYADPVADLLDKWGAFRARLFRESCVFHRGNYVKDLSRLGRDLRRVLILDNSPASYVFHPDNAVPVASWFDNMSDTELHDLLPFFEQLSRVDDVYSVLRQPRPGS

Insulin-degrading enzyme [9] = target: T7, Insulin-degrading enzyme (Homo sapiens, UniProt P14735); test: recombinant IDE activation, cell-free – biochemical, fluorescence polarization, counter-screen for IDE activator project, dose response (AID 588681)
T7 sequence (P14735 whole entry): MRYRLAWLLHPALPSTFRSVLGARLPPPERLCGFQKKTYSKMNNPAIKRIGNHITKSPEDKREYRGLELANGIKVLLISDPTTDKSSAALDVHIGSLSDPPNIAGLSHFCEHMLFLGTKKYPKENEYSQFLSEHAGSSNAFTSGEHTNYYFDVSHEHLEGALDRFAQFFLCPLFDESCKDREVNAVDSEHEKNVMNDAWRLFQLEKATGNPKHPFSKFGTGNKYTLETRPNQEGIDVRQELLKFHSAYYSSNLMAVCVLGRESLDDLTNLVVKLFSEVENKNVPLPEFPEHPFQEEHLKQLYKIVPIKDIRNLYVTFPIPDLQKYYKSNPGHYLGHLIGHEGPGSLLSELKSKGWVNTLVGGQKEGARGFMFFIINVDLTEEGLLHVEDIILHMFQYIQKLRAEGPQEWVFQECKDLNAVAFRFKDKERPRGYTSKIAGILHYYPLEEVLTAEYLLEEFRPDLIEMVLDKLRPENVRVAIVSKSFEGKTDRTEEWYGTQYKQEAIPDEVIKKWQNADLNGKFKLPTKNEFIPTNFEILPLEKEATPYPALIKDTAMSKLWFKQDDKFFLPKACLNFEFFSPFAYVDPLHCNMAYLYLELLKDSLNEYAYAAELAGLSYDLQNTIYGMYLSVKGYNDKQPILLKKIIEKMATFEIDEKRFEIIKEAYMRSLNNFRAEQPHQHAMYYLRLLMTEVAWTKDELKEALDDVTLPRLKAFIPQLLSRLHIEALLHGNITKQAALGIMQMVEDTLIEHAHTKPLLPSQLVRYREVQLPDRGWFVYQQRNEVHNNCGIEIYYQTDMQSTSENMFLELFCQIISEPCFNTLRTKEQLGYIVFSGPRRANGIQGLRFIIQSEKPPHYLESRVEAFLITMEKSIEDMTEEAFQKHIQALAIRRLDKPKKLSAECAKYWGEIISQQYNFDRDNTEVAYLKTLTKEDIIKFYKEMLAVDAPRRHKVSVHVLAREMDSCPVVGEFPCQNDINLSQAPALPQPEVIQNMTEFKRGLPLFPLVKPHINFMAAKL

Insulin-degrading enzyme [10] = target: T7, Insulin-degrading enzyme; test: cellular IDE activation of Abeta substrate cleavage – fluorescence polarization, HEK cells, dose response (AID 588439); type: functional, cell-based
HEK293 [11] = test: membrane integrity loss in HEK cells – cell-based, fluorescence, cytotoxicity control for IDE activator project, dose response (AID 588440); type: functional; conditions: Homo sapiens;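 further: cytotoxicity by LDH release measuring loss of membrane integrity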
HEK293 [12] = test: optical interference in Abeta FP readout, dose response, artefact control for IDE activator project, biochemical, fluorescence polarization (AID 588442); type: functional, cell-based; conditions: Homo sapiens

For CCCN(CC(=O)Nc1ccccc1C)C(=O)CCCOc1ccc(Br)cc1, the IC50 [1] was > 100 µM (inactive).

In the case of Cc1nc2ncccn2c1-c1csc(Nc2ccccc2)n1, the AC50 (HEK293 [2]) is reported as 28.1 µM (active) and the AC50 [3] is reported as 93.5 µM (active).

In the case of Clc1ccc(-c2nnc(NC3=NCCCCC3)o2)cc1, the IC50 (Caspase-3) is reported as 15 µM (active), the IC50 [4] is reported as 15.4 µM (active) and the IC50 [5] is reported as 30.1 µM (active). For the same compound, the IC50 [6] was 29.8 µM (active) and the AC50 (HEK293 [2]) was 1.84 µM (active).

For COc1cc2nc(NC(=O)c3ccco3)sc(=O)c2cc1OC, the IC50 [7] was > 80 µM (inactive), the AC50 (HEK293 [2]) was 6.84 µM (active) and the IC50 [8] was 10.5 µM (active).

With CSc1ccccc1OCc1cc(C(=O)NCCn2nc(C)cc2C)no1 the EC50 (Insulin-degrading enzyme [9]) was > 54.7 µM (inactive), the EC50 (Insulin-degrading enzyme [10]) was > 54.7 µM (inactive) and the IC50 (HEK293 [11]) was > 89.2 µM (inactive). For the same compound, the EC50 (HEK293 [12]) was > 54.7 µM (inactive).
